Six compounds from PMC10780275, “Evaluation of Anti-Trypanosoma cruzi Activity of Chemical Constituents from Baccharis sphenophylla Isolated Using High-Performance Countercurrent Chromatography” (Molecules, 2023) can be followed below.

Where two headings read alike, the source gives them in different places.

For data set [1], the system named is T. cruzi trypomastigote. Nature of the data set: Activity against trypomastigote forms of T. cruzi (resazurin viability, 24 h). The data set is classed as cell-based, Trypanosoma cruzi (Y strain). Particulars: trypomastigotes, serial dilutions 1.7 to 150 μM; for EC50: Trypanosoma cruzi, read-out: T. cruzi Trypomastigote EC50 (μM) ± SD. The procedure:
(§1) NCTC cells (clone 929, ATCC) were cultured in RPMI-1640 supplemented with 10% of fetal bovine serum (FBS), at 37 °C within a 5% CO2-humidified incubator. To collect peritoneal macrophages, the abdominal cavity of female BALB/c mice was rinsed with an RPMI-1640 medium, containing 10% FBS. These macrophages were then cultured overnight at 37 °C in a 5% CO2-humidified incubator. Trypanosoma cruzi trypomastigotes (Y strain) were maintained within Rhesus monkey kidney epithelial cells (LLC-MK2) cells using an RPMI-1640 medium supplemented with 2% FBS, and the incubation took place at 37 °C with 5% CO2 and humidity.
Tests of the activity from compounds 1–8 against the trypomastigote form of T. cruzi was performed, according to procedures previously reported. Trypomastigotes, in a concentration of 1 × 10^6 parasites/well, were seeded in 96-well plates and incubated with the tested compounds, alongside the standard drug benznidazole, in serial dilutions ranging from 1.7 to 150 μM, for 24 h at 37 °C in a 5% CO2 incubator. Subsequently, 20 μL of 10% resazurin was added, in order to determine cell viability. Absorbance was read in a plate spectrofluorometer Filter Max F5 Multi-Mode Microplate Reader at 570 nm. Untreated cells were used as negative controls, and cells treated with benznidazole were used as positive controls. The 50% effective concentration (EC50) against trypomastigote forms was determined by the regression of a sigmoid dose–response curve expressed in μM.
(§2) The CC50 and EC50 values were derived through the analysis of sigmoidal dose–response curves using GraphPad Prism 6.0 software. The samples were subjected to duplicate testing, and the experiments were replicated a minimum of two times.
Background: Alamar Blue is a resazurin reagent that responds to reducing activity.

The subject of data set [2] is T. cruzi amastigote. Nature of the data set: Activity against intracellular amastigotes of T. cruzi within infected macrophages (Giemsa, light microscope, 48 h). Particulars: for EC50: Trypanosoma cruzi, Peritoneal macrophage, in Mus musculus, read-out: T. cruzi Amastigote EC50 (μM) ± SD. The class given is cell-based, Trypanosoma cruzi (Y strain).
From the text: The experimental animals were sourced from the animal breeding facility located at Instituto Adolfo Lutz in São Paulo State, Brazil. Peritoneal macrophages were extracted from female BALB/c mice for intracellular experiments, while male BALB/c mice were utilized to sustain T. cruzi. These animals were provided unlimited access to both water and food, residing in sterilized enclosures within a meticulously regulated environment. All procedures were previously approved by the Animal Ethics Commission of Instituto Adolfo Lutz.
as §1
The EC50 values for compounds 1–8 against intracellular amastigotes of T. cruzi were determined within infected macrophages. Macrophages, obtained as detailed in item 4.9, were seeded onto a 16-well chamber slide (NUNC plate, Thermo Fisher, Waltham, MA, USA) at a density of 1 × 10^5 cells per well. Subsequently, these cell cultures were incubated overnight at 37 °C in a humidified incubator containing 5% CO2. Trypomastigotes, previously derived from infected LLC-MK2 cells, underwent washing in an RPMI-1640 medium, were quantified, and were then employed to infect the macrophages at a concentration of 1 × 10^6 trypomastigotes per well. Following a 2 h infection period, any non-internalized trypomastigotes were eliminated by rinsing with an RPMI medium. The compounds were subsequently exposed to the infected macrophages for 48 h at 37 °C within a 5% CO2 environment. A range of serial dilutions (ranging from 30.00 to 1.87 μM) were used for the incubation of compounds, and benznidazole was utilized as the standard drug. At the final stage of the experiment, the chamber slides were fixed using MeOH and stained with Giemsa before being assessed under a light microscope (Thermo EVOS M5000).
as §2

The nature of data set [3]: Cytotoxicity against mammalian NCTC cells (MTT assay, 48 h). The class given is cell-based. As to conditions: mouse, NCTC murine fibroblasts, highest tested concentration 200 μM, read-out: NCTC Mammalian Cell CC50 (μM) ± SD. The procedure: as §1
The determination of CC50 (50% cytotoxic concentration) values for compounds 1–8 was conducted using NCTC cells (L929 clone). These cells were seeded at a density of 6 × 10^4 cells per well in 96-well plates (Thermo Fisher). The cells were then exposed to a series of compound dilutions, ranging from 200 to 1.56 µM, and incubated for 48 h at 37 °C within a 5% CO2-equipped incubator. The viability of the cells and CC50 values were determined using 3-(4,5-dimethylthiazol-2-yl)-2,5-diphenyltetrazolium bromide (MTT) assay. Subsequently, the absorbance was measured at 570 nm using the FilterMax F5 instrument from Molecular Devices. The selectivity index (SI) was determined as the ratio between the CC50 against NCTC cells and the EC50 against trypomastigotes or amastigotes.
as §2
(Formazan colour is commonly taken as a measure of viable cells.)

Setting [4] is: intracellular amastigotes in BALB/c peritoneal macrophages, serial dilutions 30.00 to 1.87 μM.
Setting [5] is: NCTC cells (clone L929) fibroblasts.

`C[C@H]1CC=C2C(CO)(CO)CCC[C@]2(C)[C@@H]1CC[C@H](CCO)COC(=O)/C=C/c1ccc(O)cc1` [Compound 2, gaudichaudol C]: the half-maximal effective concentration (EC50) in data set [1] worked out at 2.9 ± 1.5 µM. For the same compound, in data set [2] (setting [4]), the “T. cruzi Amastigote EC50 (μM) ± SD” value was “inactive”. In addition, the CC50 at 48 h in data set [3] (setting [5]) was greater than 200 µM.
On to `COc1c(O)cc2oc(-c3ccc(O)cc3)cc(=O)c2c1O` [Compound 4, Hispidulin], for which the “T. cruzi Trypomastigote EC50 (μM) ± SD” value in data set [1] is listed as “no activity”. In addition, the EC50 in data set [2] is 12.8 ± 0.3 µM. Also, in data set [3], the CC50 at 48 h was greater than 200 µM.
For the compound `COC1C[C@@H](CC[C@@H]2[C@@H](C)CC=C3C(CO)(CO)CCC[C@@]32C)CO1` (relative stereo) [Compound 1, 15,16-epoxy-18,19-dihydroxy-16-methoxy-syn-labd-5-ene], the EC50 in data set [1] turned out to be 20.1 ± 1.5 µM. Besides, the “T. cruzi Amastigote EC50 (μM) ± SD” value in data set [2] (setting [4]) was “inactive”. The CC50 at 48 h in data set [3] (setting [5]) was greater than 200 µM.
On to `COc1c(O)cc2oc(-c3ccc(O)c(O)c3)cc(=O)c2c1O` [Compound 5, Eupafolin], for which the “T. cruzi Trypomastigote EC50 (μM) ± SD” value in data set [1] is given as “no activity”. In data set [2] (setting [4]), the EC50 was found to be 2.7 ± 0.2 µM.
On to `C=C1C[C@@]23CC[C@H]4[C@@](C)(CCC[C@@]4(C)C(=O)O)[C@@H]2CC[C@@H]1C3` [Compound 3, Ent-kaur-16-en-19-oic acid], for which, in data set [1], the EC50 came out at 10.6 ± 4.4 µM. Also, the “T. cruzi Amastigote EC50 (μM) ± SD” value in data set [2] (setting [4]) is “inactive”. Moreover, the CC50 at 48 h in data set [3] was greater than 200 µM.
`O=C(Cn1ccnc1[N+](=O)[O-])NCc1ccccc1` [Benznidazole, benznidazole, reference compound]: the EC50 turned out to be 18.7 ± 4.1 µM in data set [1] and 5.5 ± 2.2 µM in data set [2] (setting [4]). Also, the CC50 at 48 h in data set [3] (setting [5]) was greater than 200 µM.

A word on the EC50: it is the concentration needed to bring the measured effect to its halfway point. A word on the CC50: it is the concentration at which the toxic effect on the cells reaches its halfway point.
